Here are results for eight compounds from PubChem BioAssay (NCI).

Among the test systems are A549 NSCLC; CAKI-1 renal; COLO 205 colon; DU-145 prostate; HCT-116 colon; HOP-92 NSCLC; KM12 colon; LOX IMVI melanoma; MOLT-4 leukemia; OVCAR-3 ovarian; OVCAR-4 ovarian; OVCAR-5 ovarian; PC-3 prostate; RXF 393 renal; SK-MEL-2 melanoma; SNB-19 CNS; SW-620 colon; TK-10 renal; M14 melanoma.
Common to all, as to assay: NCI-60 cell line screen, 48 h

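Test compounds were applied to cells in 96-well plates for 48 hours at 5 doses. TGI: concentration producing complete growth inhibition.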

`Nc1nc(Cl)cc(NCC2(CO)CCC2)n1`: the TGI in the assay with A549 NSCLC, in the assay on CAKI-1 renal, in the assay on COLO 205 colon, in the assay with DU-145 prostate, in the assay with HCT-116 colon and with HOP-92 NSCLC was greater than 100 µM each time. For the same compound, the TGI with KM12 colon, with LOX IMVI melanoma, with MOLT-4 leukemia, in the assay on OVCAR-3 ovarian, in the assay with OVCAR-4 ovarian and in the assay on OVCAR-5 ovarian was greater than 100 µM each time. In addition, the TGI with PC-3 prostate, with RXF 393 renal, in the assay with SK-MEL-2 melanoma, with SNB-19 CNS, in the assay on SW-620 colon and in the assay with TK-10 renal was greater than 100 µM in each case.
With `COc1ccc(Nc2nc(N)c(C(=O)c3ccc(OC)cc3)s2)cc1`, the TGI with A549 NSCLC was greater than 44.5 µM; in the assay on CAKI-1 renal it was greater than 48.6 µM; in the assay with COLO 205 colon, greater than 100 µM; with DU-145 prostate, 6.94 µM; in the assay with HCT-116 colon it was greater than 28.9 µM; with HOP-92 NSCLC, greater than 86.5 µM. For the same compound, the TGI in the assay on LOX IMVI melanoma is greater than 100 µM; in the assay on OVCAR-3 ovarian, 2.1 µM; with OVCAR-4 ovarian it was greater than 100 µM; in the assay on OVCAR-5 ovarian, greater than 100 µM; with PC-3 prostate, 22.1 µM; with RXF 393 renal, 4.55 µM. In addition, the TGI was greater than 55.4 µM in the assay on SK-MEL-2 melanoma, greater than 49.5 µM in the assay on SNB-19 CNS, greater than 37.5 µM with SW-620 colon and greater than 60.7 µM in the assay on TK-10 renal.
In the case of `O=[N+]([O-])/C(Cl)=C(\Nc1ccccc1)C(Cl)=C(Cl)Cl`, the TGI in the assay on A549 NSCLC was 95 µM; with CAKI-1 renal it was greater than 100 µM; in the assay with COLO 205 colon, 39.5 µM; in the assay with DU-145 prostate it was greater than 100 µM; with HCT-116 colon, greater than 100 µM; in the assay with HOP-92 NSCLC it was 69.5 µM. Also, the TGI was 32 µM in the assay on KM12 colon; 88.5 µM in the assay on LOX IMVI melanoma; 58.4 µM with M14 melanoma; greater than 100 µM in the assay on MOLT-4 leukemia; 40.7 µM with OVCAR-3 ovarian; greater than 100 µM in the assay with OVCAR-4 ovarian. In addition, the TGI is greater than 100 µM in the assay with OVCAR-5 ovarian; greater than 100 µM with PC-3 prostate; greater than 100 µM in the assay with RXF 393 renal; 91.6 µM in the assay on SK-MEL-2 melanoma; greater than 100 µM in the assay with SNB-19 CNS; greater than 100 µM with TK-10 renal.
For the compound `CC(=O)NCC1(c2ccccc2)CCN(CC2COc3ccccc3O2)CC1` (stereo unspecified), the TGI in the assay on A549 NSCLC, with CAKI-1 renal, in the assay on COLO 205 colon, in the assay with DU-145 prostate, in the assay with HCT-116 colon and in the assay with KM12 colon was greater than 100 µM in each case. In addition, the TGI in the assay with LOX IMVI melanoma, in the assay with M14 melanoma, in the assay with MOLT-4 leukemia, in the assay on OVCAR-3 ovarian, in the assay on OVCAR-4 ovarian and in the assay on OVCAR-5 ovarian was greater than 100 µM throughout. The TGI with PC-3 prostate, in the assay on RXF 393 renal, in the assay with SK-MEL-2 melanoma, with SNB-19 CNS, with SW-620 colon and in the assay with TK-10 renal was greater than 100 µM in each case.
As to `COC1C=C(NCC2(CO)CCC2)NC(N)=N1` (stereo unspecified), the TGI in the assay on A549 NSCLC, in the assay with CAKI-1 renal, with COLO 205 colon, with DU-145 prostate, in the assay with HCT-116 colon and with HOP-92 NSCLC was greater than 100 µM in each case. The TGI in the assay on KM12 colon, in the assay with LOX IMVI melanoma, with M14 melanoma, in the assay with MOLT-4 leukemia, in the assay on OVCAR-3 ovarian and in the assay on OVCAR-4 ovarian was greater than 100 µM in each case. Also, the TGI in the assay with OVCAR-5 ovarian, in the assay with PC-3 prostate, in the assay with RXF 393 renal, with SK-MEL-2 melanoma, in the assay with SNB-19 CNS and in the assay with SW-620 colon was greater than 100 µM in each case.
For the compound `C[C@]12CC(c3ccccc3O1)C(C#N)C(=O)N2` (stereo partly specified), the TGI in the assay on A549 NSCLC, with CAKI-1 renal, with COLO 205 colon, in the assay on DU-145 prostate, in the assay on HCT-116 colon and in the assay with HOP-92 NSCLC was greater than 100 µM in each case. The TGI in the assay on KM12 colon, in the assay on LOX IMVI melanoma, in the assay on M14 melanoma, with MOLT-4 leukemia, with OVCAR-3 ovarian and with OVCAR-4 ovarian was greater than 100 µM each time. For the same compound, the TGI with OVCAR-5 ovarian, in the assay with PC-3 prostate, with RXF 393 renal, with SK-MEL-2 melanoma, in the assay with SNB-19 CNS and with SW-620 colon was greater than 100 µM in each case.
`O=c1n(-c2ccccc2)c(=O)n2n1C1CCC2CC1`: the TGI with A549 NSCLC, in the assay with CAKI-1 renal, with COLO 205 colon, in the assay on DU-145 prostate, in the assay with HCT-116 colon and with HOP-92 NSCLC was greater than 100 µM in each case. The TGI with KM12 colon, with LOX IMVI melanoma, in the assay on M14 melanoma, with MOLT-4 leukemia, in the assay on OVCAR-3 ovarian and in the assay on OVCAR-5 ovarian was greater than 100 µM throughout. In addition, the TGI in the assay on PC-3 prostate, with SK-MEL-2 melanoma, in the assay on SNB-19 CNS, in the assay with SW-620 colon and in the assay with TK-10 renal was greater than 100 µM in each case.
For the compound `Nc1nc(N)nc(-c2cnccn2)n1`, the TGI with A549 NSCLC, with CAKI-1 renal, in the assay with COLO 205 colon, with DU-145 prostate, in the assay with HCT-116 colon and in the assay on HOP-92 NSCLC was greater than 100 µM each time. Further, the TGI in the assay on KM12 colon, in the assay on LOX IMVI melanoma, in the assay with M14 melanoma, in the assay on MOLT-4 leukemia, in the assay with OVCAR-3 ovarian and in the assay with OVCAR-5 ovarian was greater than 100 µM each time. Moreover, the TGI with PC-3 prostate, in the assay with RXF 393 renal, in the assay with SK-MEL-2 melanoma, with SNB-19 CNS, in the assay on SW-620 colon and in the assay on TK-10 renal was greater than 100 µM each time.
